One test addresses PI3Kα (Homo sapiens, UniProt P42336). Put plainly: ELISA assay for PI3Kα: in-cell ELISA, phosphorylation of AKT (Thr308) in MDA-MB-453 cells. It counts as cell-based. The following applies: cellular, pAKT (Thr308), IGF-1 stimulation, read-out: IC50 p110α. As for the experimental part:
PI3K alpha (PI3Kα) activity was determined by measuring the phosphorylation of AKT (Thr308) using an in-cell ELISA assay. MDA-MB-453 (breast carcinoma) cells were obtained from ATCC (ATCC #HTB-131). Growth medium was DMEM (CellGro #CV-10-013-CV) supplemented with 10% fetal bovine serum, 100 IU/mL penicillin, 100 μg/mL streptomycin, and 1×MEM non-essential amino acids. Phosphate buffered saline (PBS) contained 2.7 M NaCl, 54 mM KCl, 86 mM […] (dibasic, anhydrous), and 28 mM […] (monobasic, anhydrous) at pH 7.2. Stimulation mixture (10×) was 1000 ng/mL LONG® R^3 human IGF-1 (Sigma #I1271) diluted in serum-free DMEM medium (CellGro #CV-10-013-CV). Compounds for testing were dissolved and serially diluted in 100% DMSO (total of 10 concentrations), then diluted in serum-free DMEM to 2× final assay concentration. Fixative solution (2×) was 8% formaldehyde (Amresco #M134) diluted in PBS. Permeabilization solution was PBS supplemented with 0.1% Triton X-100. Blocking buffer was obtained from LiCor (LiCor #927-40000). Wash buffer was PBS supplemented with 0.1% Tween-20. Primary antibody solution was rabbit anti-pAKT^T308 monoclonal antibody (Cell Signaling #2965) and mouse anti-total S6 (Santa Cruz #74459) diluted 1:500 and 1:2000, respectively, in the blocking buffer. Secondary antibody solution was IRDye 800CW-conjugated goat anti-rabbit IgG (LiCor #926-32211) and IRDye 680LT-conjugated goat anti-mouse IgG (LiCor #926-68020) diluted 1:1000 and 1:2000, respectively, in the blocking buffer.
MDA-MB-453 cells were subcultured in growth medium and seeded into flat, clear bottom, 96-well plates (Corning #3904) at 40000 cells/well, then incubated overnight in a 5% CO2 incubator at 37° C. Growth medium in plates was replaced with 100 μL/well serum-free DMEM and incubated overnight at 37° C. in a 5% CO2 incubator. Fresh serum-free DMEM (50 μL/well) was added to plates. Compound treatment was performed by adding 50 μL/well of 2× compound mixture to plates and incubating for 1 hr at 37° C. and 5% CO2, after which 11 μL/well of 10× stimulation mixture was added and plates were incubated for 10 min at 37° C. and 5% CO2. Fixation was performed by adding 110 μL/well of 2× fixative solution to the plates and incubating for 20 min at room temperature. Permeabilization was performed by replacing fixation solution with 150 μL/well permeabilization solution and incubating for 10 min at room temperature. Permeabilization was repeated (for a total of 2 times). Permeabilization solution was replaced with 100 μL/well blocking buffer and plates were incubated for 1 hour at room temperature, after which 100 μL/well of primary antibody solution was added and plates were incubated overnight at 4° C. Plates were washed with wash buffer, after which 100 μL/well of secondary antibody solution was added to the plates and incubated in the dark for 1 hr at room temperature. Plates were washed with wash buffer, followed by a wash with PBS. After completely removing PBS, plates were scanned on the Licor Odyssey Imager. Images were quantified using Licor Odyssey application software. IC50 values were determined by curve fitting using a Collaborative Drug Discovery database (www.collaborativedrug.com).
In general terms: In an ELISA, binding on a coated surface is turned into a signal by an enzyme label.

The next test concerns the target mTOR (Homo sapiens, UniProt P42345). Description: mTOR inhibition (Table 1). It is filed as biochemical. The following applies: Table 1, no method described.
The target in the next test is T1, PI3Kδ (Homo sapiens, UniProt O00329).
T1 construct: endogenous in cells; host or cells: Raji (ATCC #CCL-86)
T1 sequence (O00329 whole entry): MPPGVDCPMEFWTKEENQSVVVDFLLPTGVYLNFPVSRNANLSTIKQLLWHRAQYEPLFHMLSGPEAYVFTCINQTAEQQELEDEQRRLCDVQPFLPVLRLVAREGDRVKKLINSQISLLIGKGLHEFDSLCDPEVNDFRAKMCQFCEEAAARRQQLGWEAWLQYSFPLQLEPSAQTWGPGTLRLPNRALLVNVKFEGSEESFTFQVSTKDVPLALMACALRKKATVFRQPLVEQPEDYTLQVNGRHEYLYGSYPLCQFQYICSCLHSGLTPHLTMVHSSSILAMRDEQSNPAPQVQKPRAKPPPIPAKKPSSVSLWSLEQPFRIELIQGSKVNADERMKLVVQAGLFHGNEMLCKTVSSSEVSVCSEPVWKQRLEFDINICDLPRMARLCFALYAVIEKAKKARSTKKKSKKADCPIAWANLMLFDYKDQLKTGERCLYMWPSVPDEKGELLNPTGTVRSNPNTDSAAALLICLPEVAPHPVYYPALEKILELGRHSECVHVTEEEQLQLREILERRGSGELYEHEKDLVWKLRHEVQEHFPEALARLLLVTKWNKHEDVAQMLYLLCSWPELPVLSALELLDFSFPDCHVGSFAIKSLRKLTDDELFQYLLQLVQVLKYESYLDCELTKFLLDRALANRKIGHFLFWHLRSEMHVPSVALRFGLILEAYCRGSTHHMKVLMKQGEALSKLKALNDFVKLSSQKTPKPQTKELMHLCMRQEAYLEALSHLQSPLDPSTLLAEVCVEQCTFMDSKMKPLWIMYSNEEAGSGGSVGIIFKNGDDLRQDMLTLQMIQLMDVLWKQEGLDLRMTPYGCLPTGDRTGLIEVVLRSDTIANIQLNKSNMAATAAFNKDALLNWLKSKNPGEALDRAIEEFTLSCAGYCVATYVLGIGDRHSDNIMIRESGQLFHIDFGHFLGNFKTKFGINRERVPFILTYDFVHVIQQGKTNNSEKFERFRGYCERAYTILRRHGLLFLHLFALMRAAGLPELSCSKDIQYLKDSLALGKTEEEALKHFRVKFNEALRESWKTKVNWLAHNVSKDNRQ
T1 sequence (P27986 whole entry partner): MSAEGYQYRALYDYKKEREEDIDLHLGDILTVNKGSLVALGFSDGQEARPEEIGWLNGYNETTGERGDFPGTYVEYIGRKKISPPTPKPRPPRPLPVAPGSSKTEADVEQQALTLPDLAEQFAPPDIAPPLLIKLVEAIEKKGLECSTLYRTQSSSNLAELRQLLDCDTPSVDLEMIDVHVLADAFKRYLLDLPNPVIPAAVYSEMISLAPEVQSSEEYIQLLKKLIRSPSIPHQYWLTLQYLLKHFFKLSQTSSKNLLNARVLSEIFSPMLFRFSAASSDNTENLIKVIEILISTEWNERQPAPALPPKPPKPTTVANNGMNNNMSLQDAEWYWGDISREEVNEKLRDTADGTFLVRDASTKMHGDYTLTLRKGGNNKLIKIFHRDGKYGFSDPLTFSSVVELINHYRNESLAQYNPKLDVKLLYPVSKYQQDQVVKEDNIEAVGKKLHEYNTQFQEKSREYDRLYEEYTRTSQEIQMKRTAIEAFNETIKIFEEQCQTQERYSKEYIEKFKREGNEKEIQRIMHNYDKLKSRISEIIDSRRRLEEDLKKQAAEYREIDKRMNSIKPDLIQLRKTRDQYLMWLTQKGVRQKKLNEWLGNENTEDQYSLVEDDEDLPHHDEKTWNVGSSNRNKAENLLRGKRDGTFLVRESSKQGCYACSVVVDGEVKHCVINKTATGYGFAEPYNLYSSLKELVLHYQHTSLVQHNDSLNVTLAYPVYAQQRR
Description: ELISA assay for PI3Kδ: sandwich ELISA, phosphorylation of AKT (Thr308) in Raji cells. The note with it: for IC50: cellular, pAKT (Thr308), Raji cells, anti-Human IgM stimulation, read-out: IC50 p110δ; for α/δ ratio / β/δ ratio / γ/δ ratio: ratio of cellular IC50 values, Table 2. It counts as cell-based. Here is the method: Cellular PI3Kδ activity was determined by measuring the phosphorylation of AKT (Thr308) using a sandwich enzyme-linked immunosorbant assay (ELISA). Raji (Burkitt's Lymphoma) cells were obtained from ATCC (ATCC #CCL-86). Phosphate buffer saline (PBS) contained 2.7 M NaCl, 54 mM KCl, 86 mM […] (dibasic, anhydrous), and 28 mM […] (monobasic, anhydrous) at pH 7.2. Wash buffer contained PBS supplemented with 0.05% Tween-20. Blocking buffer contained wash buffer supplemented with 1% BSA. A 10× stimulation mixture contained 5 μg/mL anti-Human IgM antibody (Sigma #12386) diluted in serum-free RPMI medium (CellGro #CV-10-040-CV). Compounds for testing were dissolved and serially diluted in 100% DMSO (total of 10 concentrations), and then diluted in serum-free RPMI to 5×final assay concentration.
Raji cells were subcultured in RPMI medium supplemented with 10% fetal bovine serum, 100 IU/mL penicillin, 100 μg/mL streptomycin, and 1×MEM non-essential amino acids. Sandwich ELISA plates were prepared by coating 96-well assay plates (Pierce #15042) with 100 μL/well capture antibody (Cell Signaling Technology #7142 or 7144) diluted in PBS. Plates were incubated overnight at 4° C., then washed with wash buffer, after which 200 μL/well blocking buffer was added to the plates and incubated at room temperature for at least 2 hrs. Raji cells were resuspended in serum-free RPMI medium and seeded into V-bottom, 2-mL 96-well blocks (Corning #3961) at 10^6 cells/well, then incubated for 2 hrs in a 37° C., 5% CO2 incubator. Compound treatment was performed by adding the 5× compound mixture to the cells and incubating for 2 hrs at 37° C., 5% CO2, after which the 10× stimulation mixture was added to the plates and incubated for 30 min at 37° C., 5% CO2. Cells were pelleted by centrifuging plates at 1500 RPM for 5 min at room temperature. Media was carefully removed and cells were lysed by adding 100 μL/well cell lysis buffer (Cell Signaling Technology #9803) supplemented with protease and phosphatase inhibitors (Thermo Fisher #78443). Plates were incubated on ice for 30 min, then the lysates (80 μL for pAKT^T308, 10 μL for total AKT) were transferred to prepared assay plates and incubated at 4° C. overnight. After washing plates with wash buffer, 100 μL/well detection antibody (Cell Signaling Technology #7142 or 7144) diluted in blocking buffer was added to the plates and incubated for 1 hr at 37° C. Plates were washed and 100 μL/well of HRP-conjugated secondary antibody (Cell Signaling Technology #7142 or 7144) diluted in blocking buffer was added to plates and incubated for 1 hr at room temperature. Plates were washed with wash buffer and 100 μL/well of luminescent substrate was added to plates. After 1 min on a plate shaker at medium speed, luminescence was read on a Wallac Victor2 plate reader. IC50 values were determined by curve fitting using a Collaborative Drug Discovery database (www.collaborativedrug.com).

Structures are written as SMILES.

As a reminder, the IC50 is the midpoint of a concentration-inhibition curve.

PI3Kα, sequence (P27986 2-724): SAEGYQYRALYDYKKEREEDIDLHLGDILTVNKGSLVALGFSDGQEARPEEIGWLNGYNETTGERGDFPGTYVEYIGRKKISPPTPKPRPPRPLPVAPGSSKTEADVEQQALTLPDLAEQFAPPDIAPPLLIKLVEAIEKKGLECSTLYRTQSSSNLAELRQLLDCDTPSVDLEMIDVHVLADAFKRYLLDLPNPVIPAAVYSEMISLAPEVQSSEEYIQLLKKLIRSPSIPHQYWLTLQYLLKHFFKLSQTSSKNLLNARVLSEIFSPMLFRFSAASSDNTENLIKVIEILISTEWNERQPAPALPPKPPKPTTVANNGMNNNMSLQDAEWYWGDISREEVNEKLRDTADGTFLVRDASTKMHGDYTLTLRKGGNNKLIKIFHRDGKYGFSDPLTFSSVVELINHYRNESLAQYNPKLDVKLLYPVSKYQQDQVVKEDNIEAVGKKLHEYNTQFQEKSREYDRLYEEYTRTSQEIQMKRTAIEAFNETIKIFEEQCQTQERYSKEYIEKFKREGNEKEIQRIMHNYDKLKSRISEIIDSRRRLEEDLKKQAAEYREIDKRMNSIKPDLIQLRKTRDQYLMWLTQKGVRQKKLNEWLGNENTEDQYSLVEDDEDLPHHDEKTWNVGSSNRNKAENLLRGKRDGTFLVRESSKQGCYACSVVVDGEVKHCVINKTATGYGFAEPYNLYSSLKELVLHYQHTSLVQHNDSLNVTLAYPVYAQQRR
PI3Kα, sequence (P42336 whole entry): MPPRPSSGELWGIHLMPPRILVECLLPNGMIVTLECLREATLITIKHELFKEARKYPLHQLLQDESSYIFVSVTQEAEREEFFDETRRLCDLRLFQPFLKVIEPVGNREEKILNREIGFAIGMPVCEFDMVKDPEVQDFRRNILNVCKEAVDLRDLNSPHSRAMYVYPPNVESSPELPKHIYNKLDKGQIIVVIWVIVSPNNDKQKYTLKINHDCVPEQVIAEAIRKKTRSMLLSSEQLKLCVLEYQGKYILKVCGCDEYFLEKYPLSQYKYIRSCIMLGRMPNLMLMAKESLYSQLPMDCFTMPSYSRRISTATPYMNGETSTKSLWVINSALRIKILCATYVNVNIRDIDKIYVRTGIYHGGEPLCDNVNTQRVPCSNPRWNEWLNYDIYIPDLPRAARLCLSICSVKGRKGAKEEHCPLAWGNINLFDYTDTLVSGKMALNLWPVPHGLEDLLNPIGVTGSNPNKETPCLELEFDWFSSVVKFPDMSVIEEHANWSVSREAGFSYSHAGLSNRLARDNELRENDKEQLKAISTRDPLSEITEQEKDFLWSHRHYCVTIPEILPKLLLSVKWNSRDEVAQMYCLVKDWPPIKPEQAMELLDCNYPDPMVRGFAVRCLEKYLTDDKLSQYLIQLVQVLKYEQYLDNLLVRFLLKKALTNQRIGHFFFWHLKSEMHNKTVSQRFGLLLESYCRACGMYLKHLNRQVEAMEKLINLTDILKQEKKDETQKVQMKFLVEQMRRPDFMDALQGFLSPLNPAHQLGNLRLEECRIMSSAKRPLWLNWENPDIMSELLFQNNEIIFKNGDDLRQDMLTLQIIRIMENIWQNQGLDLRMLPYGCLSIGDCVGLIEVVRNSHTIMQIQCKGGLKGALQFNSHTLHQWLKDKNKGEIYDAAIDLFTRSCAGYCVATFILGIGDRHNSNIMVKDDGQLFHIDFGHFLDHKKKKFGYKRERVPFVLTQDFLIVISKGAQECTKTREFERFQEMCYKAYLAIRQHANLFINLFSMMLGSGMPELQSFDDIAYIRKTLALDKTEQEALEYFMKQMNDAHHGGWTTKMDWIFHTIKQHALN

For `Cc1cccc(CC(C)(C)Nc2nc(N3CCOCC3)nc(-n3c(C(F)F)nc4ccccc43)n2)c1` [Compound A49, 4-(2-(difluoromethyl)-1H-benzo[d]imidazol-1-yl)-N-(2-methyl-1-m-tolylpropan-2-yl)-6-morpholino-1,3,5-triazin-2-amine], the IC50 at PI3Kα was > 0.5 µM. The IC50 on mTOR was > 0.5 µM. Besides, at PI3Kδ, the IC50 was ≤ 0.1 µM, the α/δ ratio result is given as “A’”, the β/δ ratio entry is reported as “B’” and the γ/δ ratio result is “A’”.
For `CC(C)(Cc1ccccc1)Nc1nc(N2CCOCC2)nc(-n2c(C(F)F)nc3ccccc32)n1` [Compound A14, 4-(2-(difluoromethyl)-1H-benzo[d]imidazol-1-yl)-N-(2-methyl-1-phenylpropan-2-yl)-6-morpholino-1,3,5-triazin-2-amine], the IC50 on PI3Kα is > 0.5 µM. Further, the IC50 on mTOR was > 0.5 µM. Besides, at PI3Kδ, the IC50 is ≤ 0.1 µM, the α/δ ratio entry was “A’”, the β/δ ratio result is reported as “A’” and the γ/δ ratio entry is “A’”.
Take `CC(C)(Cc1cccc(F)c1)Nc1nc(N2CCOCC2)nc(-n2c(C(F)F)nc3ccccc32)n1` [Compound A39, 4-(2-(difluoromethyl)-1H-benzo[d]imidazol-1-yl)-N-(1-(3-fluorophenyl)-2-methylpropan-2-yl)-6-morpholino-1,3,5-triazin-2-amine]: at PI3Kα, the concentration for half-maximal inhibition (IC50) is > 0.5 µM. On mTOR, the half-inhibitory concentration (IC50) is > 0.5 µM. On PI3Kδ, the IC50 is ≤ 0.1 µM, the α/δ ratio result was “A’” and the γ/δ ratio result is given as “A’”.
In the case of `CN1CCN(c2cc(-c3ccccc3CC(C)(C)Nc3nc(N4CCOCC4)nc(-n4c(C(F)F)nc5ccccc54)n3)ccn2)CC1` [Compound A64, 4-(2-(difluoromethyl)-1H-benzo[d]imidazol-1-yl)-N-(2-methyl-1-(2-(2-(4-methylpiperazin-1-yl)pyridin-4-yl)phenyl)propan-2-yl)-6-morpholino-1,3,5-triazin-2-amine], the IC50 at PI3Kα is > 0.5 µM. Besides, on mTOR, the IC50 was > 0.5 µM. Moreover, at PI3Kδ, the IC50 is ≤ 0.1 µM, the α/δ ratio result is listed as “A’”, the β/δ ratio result is “A’” and the γ/δ ratio entry is listed as “A’”.
Regarding `Cn1nccc1-c1ccccc1CC(C)(C)Nc1nc(N2CCOCC2)nc(-n2c(C(F)F)nc3ccccc32)n1` [Compound A46, 4-(2-(difluoromethyl)-1H-benzo[d]imidazol-1-yl)-N-(2-methyl-1-(2-(1-methyl-1H-pyrazol-5-yl)phenyl)propan-2-yl)-6-morpholino-1,3,5-triazin-2-amine], the IC50 on PI3Kα was > 0.5 µM. In addition, the IC50 on mTOR is > 0.5 µM. On PI3Kδ, the IC50 is ≤ 0.1 µM, the α/δ ratio entry was “A’”, the β/δ ratio result is reported as “B’” and the γ/δ ratio result is recorded as “A’”.
With `CC(C)(Cc1ccccc1-c1cncnc1)Nc1nc(N2CCOCC2)nc(-n2c(C(F)F)nc3ccccc32)n1` [Compound A63, 4-(2-(difluoromethyl)-1H-benzo[d]imidazol-1-yl)-N-(2-methyl-1-(2-(pyrimidin-5-yl)phenyl)propan-2-yl)-6-morpholino-1,3,5-triazin-2-amine], the IC50 on PI3Kα is > 0.5 µM. In addition, on mTOR, the IC50 was > 0.5 µM. In addition, at PI3Kδ, the IC50 is ≤ 0.1 µM, the α/δ ratio entry is given as “A’”, the β/δ ratio result was “A’” and the γ/δ ratio result is “A’”.
Turning to `CN(C)CCCc1ccccc1CC(C)(C)Nc1nc(N2CCOCC2)nc(-n2c(C(F)F)nc3ccccc32)n1` [Compound A76, 4-(2-(difluoromethyl)-1H-benzo[d]imidazol-1-yl)-N-(1-(2-(3-(dimethylamino)propyl)phenyl)-2-methylpropan-2-yl)-6-morpholino-1,3,5-triazin-2-amine], the half-inhibitory concentration (IC50) on PI3Kα is > 0.5 µM. Moreover, the IC50 on mTOR was > 0.5 µM. Also, at PI3Kδ, the IC50 was ≤ 0.1 µM, the α/δ ratio result is “A’”, the β/δ ratio result is listed as “A’” and the γ/δ ratio result is listed as “A’”.
Regarding `CC(C)(Cc1ccccc1-c1cccc(CN2CCOCC2)c1)Nc1nc(N2CCOCC2)nc(-n2c(C(F)F)nc3ccccc32)n1` [Compound A65, 4-(2-(difluoromethyl)-1H-benzo[d]imidazol-1-yl)-N-(2-methyl-1-(3′-(morpholinomethyl)biphenyl-2-yl)propan-2-yl)-6-morpholino-1,3,5-triazin-2-amine], the IC50 at PI3Kα was > 0.5 µM. The IC50 against mTOR is > 0.5 µM. At PI3Kδ, the IC50 was ≤ 0.1 µM, the α/δ ratio result is given as “A’”, the β/δ ratio entry is on record as “B’” and the γ/δ ratio result is listed as “A’”.
Take `CC(C)(Cc1ccccc1-c1cn[nH]c1)Nc1nc(N2CCOCC2)nc(-n2c(C(F)F)nc3ccccc32)n1` [Compound A44, 4-(2-(difluoromethyl)-1H-benzo[d]imidazol-1-yl)-N-(1-(2-(1H-pyrazol-4-yl)phenyl)-2-methylpropan-2-yl)-6-morpholino-1,3,5-triazin-2-amine]: the IC50 at PI3Kα was > 0.5 µM. The IC50 against mTOR was > 0.5 µM. In addition, on PI3Kδ, the IC50 was ≤ 0.1 µM, the α/δ ratio result was “A’”, the β/δ ratio result is “A’” and the γ/δ ratio entry was “A’”.
For the compound `CC(=O)N1CCC(c2ccccc2CC(C)(C)Nc2nc(N3CCOCC3)nc(-n3c(C(F)F)nc4ccccc43)n2)CC1` [Compound A72, 4-(2-(difluoromethyl)-1H-benzo[d]imidazol-1-yl)-N-(2-methyl-1-(2-(1-acetylpiperidin-4-yl)phenyl)propan-2-yl)-6-morpholino-1,3,5-triazin-2-amine], on PI3Kα, the IC50 is 0.2 to 0.5 µM. Besides, at mTOR, the IC50 is > 0.5 µM. Also, at PI3Kδ, the IC50 was ≤ 0.1 µM, the α/δ ratio entry is reported as “A’”, the β/δ ratio entry is on record as “A’” and the γ/δ ratio result is listed as “A’”.

The values above are taken from patent US12059422B2 (MEI Pharma, Inc., priority 2011, dated 2024).
